#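 Exposure lasted 48 hours, with cells grown in 96-well plates and compounds tested at five concentrations. TGI denotes the concentration required for complete inhibition of growth.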
# Key:
# Assay in all cases: NCI anticancer screen, dose series, 48 h
# [1] = system: 786-0 renal
# [2] = system: A498 renal
# [3] = system: A549 NSCLC
# [4] = system: ACHN renal
# [5] = system: BT-549 breast
# [6] = system: CAKI-1 renal
# [7] = system: CCRF-CEM leukemia
# [8] = system: COLO 205 colon
# [9] = system: DU-145 prostate
# [10] = system: EKVX NSCLC
# [11] = system: HCT-116 colon
# [12] = system: HCT-15 colon
# [13] = system: HL-60(TB) leukemia
# [14] = system: HOP-62 NSCLC
# [15] = system: HOP-92 NSCLC
# [16] = system: HS 578T breast
# [17] = system: HT29 colon
# [18] = system: IGROV1 ovarian
# [19] = system: K-562 leukemia
# [20] = system: KM12 colon
# [21] = system: LOX IMVI melanoma
# [22] = system: M14 melanoma
# [23] = system: MALME-3M melanoma
# [24] = system: MDA-MB-231 breast
# [25] = system: MDA-MB-435
# [26] = system: MDA-N
# [27] = system: MOLT-4 leukemia
# [28] = system: NCI-H226 lung
# [29] = system: NCI-H23 lung
# [30] = system: NCI-H460 lung
# [31] = system: NCI-H522 lung
# [32] = system: NCI/ADR-RES ovarian
# [33] = system: OVCAR-3 ovarian
# [34] = system: OVCAR-5 ovarian
# [35] = system: OVCAR-8 ovarian
# [36] = system: PC-3 prostate
# [37] = system: RPMI-8226 leukemia
# [38] = system: RXF 393 renal
# [39] = system: SF-268 CNS
# [40] = system: SF-295 CNS
# [41] = system: SF-539 CNS
# [42] = system: SK-MEL-2 melanoma
# [43] = system: SK-MEL-28 melanoma
# [44] = system: SK-MEL-5 melanoma
# [45] = system: SK-OV-3 ovarian
# [46] = system: SN12C renal
# [47] = system: SNB-19 CNS
# [48] = system: SNB-75 CNS
# [49] = system: SW-620 colon
# [50] = system: T-47D breast
# [51] = system: TK-10 renal
# [52] = system: U251 CNS
# [53] = system: UACC-257 melanoma
# [54] = system: UACC-62 melanoma
# [55] = system: UO-31 renal
# [56] = system: HCC-2998 colon
# [57] = system: OVCAR-4 ovarian
# [58] = system: SR leukemia
smiles,measurement,setting,value
c1ccc2c(c1)N[C@@H]1c3[nH]c4ccccc4c3CC[C@H]21,TGI,[1],28.5 µM
same,TGI,[2],32 µM
same,TGI,[3],41.4 µM
same,TGI,[4],68.1 µM
same,TGI,[5],37.7 µM
same,TGI,[6],38.6 µM
same,TGI,[7],36.9 µM
same,TGI,[8],27.9 µM
same,TGI,[9],35.3 µM
same,TGI,[10],37.2 µM
same,TGI,[11],27.8 µM
same,TGI,[12],65.3 µM
same,TGI,[13],36.2 µM
same,TGI,[14],26.9 µM
same,TGI,[15],30.6 µM
same,TGI,[16],25.9 µM
same,TGI,[17],29.7 µM
same,TGI,[18],20.9 µM
same,TGI,[19],27.8 µM
same,TGI,[20],30.7 µM
same,TGI,[21],29.5 µM
same,TGI,[22],26.4 µM
same,TGI,[23],22.1 µM
same,TGI,[24],29.9 µM
same,TGI,[25],31.1 µM
same,TGI,[26],39.2 µM
same,TGI,[27],42 µM
same,TGI,[28],31.6 µM
same,TGI,[29],33 µM
same,TGI,[30],33.9 µM
same,TGI,[31],24.2 µM
same,TGI,[32],28 µM
same,TGI,[33],27.3 µM
same,TGI,[34],29.4 µM
same,TGI,[35],25.6 µM
same,TGI,[36],24.6 µM
same,TGI,[37],59 µM
same,TGI,[38],32.6 µM
same,TGI,[39],65.1 µM
same,TGI,[40],29.7 µM
same,TGI,[41],31.4 µM
same,TGI,[42],31.7 µM
same,TGI,[43],35.3 µM
same,TGI,[44],27.3 µM
same,TGI,[45],36.7 µM
same,TGI,[46],28.5 µM
same,TGI,[47],37.9 µM
same,TGI,[48],22.8 µM
same,TGI,[49],33.3 µM
same,TGI,[50],76.2 µM
same,TGI,[51],> 100 µM
same,TGI,[52],27.2 µM
same,TGI,[53],> 100 µM
same,TGI,[54],31.6 µM
same,TGI,[55],37.2 µM
COc1ccc2c(c1)C(=O)C1(C2)[C@H](c2ccccc2)C2C(=O)c3cc(OC)ccc3C2[C@H]1c1ccccc1 (stereo partly specified),TGI,[1],> 100 µM
same,TGI,[2],> 100 µM
same,TGI,[3],> 100 µM
same,TGI,[4],> 100 µM
same,TGI,[5],> 100 µM
same,TGI,[6],5.63 µM
same,TGI,[7],> 100 µM
same,TGI,[8],> 100 µM
same,TGI,[9],> 100 µM
same,TGI,[10],> 100 µM
same,TGI,[56],> 100 µM
same,TGI,[11],> 100 µM
same,TGI,[12],> 100 µM
same,TGI,[13],> 100 µM
same,TGI,[14],> 100 µM
same,TGI,[15],> 100 µM
same,TGI,[16],> 100 µM
same,TGI,[17],> 100 µM
same,TGI,[18],> 100 µM
same,TGI,[19],> 100 µM
same,TGI,[20],> 100 µM
same,TGI,[21],> 100 µM
same,TGI,[22],> 100 µM
same,TGI,[23],> 100 µM
same,TGI,[24],> 100 µM
same,TGI,[25],> 100 µM
same,TGI,[26],> 100 µM
same,TGI,[27],> 100 µM
same,TGI,[28],> 100 µM
same,TGI,[29],> 100 µM
same,TGI,[30],> 100 µM
same,TGI,[31],> 100 µM
same,TGI,[32],> 100 µM
same,TGI,[33],> 100 µM
same,TGI,[57],> 100 µM
same,TGI,[34],> 100 µM
same,TGI,[35],> 100 µM
same,TGI,[36],> 100 µM
same,TGI,[37],> 100 µM
same,TGI,[38],> 100 µM
same,TGI,[39],> 100 µM
same,TGI,[40],> 100 µM
same,TGI,[41],> 100 µM
same,TGI,[43],> 100 µM
same,TGI,[44],> 100 µM
same,TGI,[45],> 100 µM
same,TGI,[46],> 100 µM
same,TGI,[47],> 100 µM
same,TGI,[48],> 100 µM
same,TGI,[58],> 100 µM
same,TGI,[49],> 100 µM
same,TGI,[50],> 100 µM
same,TGI,[51],> 100 µM
same,TGI,[52],> 100 µM
same,TGI,[53],> 100 µM
same,TGI,[54],> 100 µM
same,TGI,[55],> 100 µM
CS(=O)(=O)Nc1ccc2c(c1)N(S(C)(=O)=O)CC2COS(C)(=O)=O (stereo unspecified),TGI,[1],> 100 µM
same,TGI,[2],> 100 µM
same,TGI,[3],> 100 µM
same,TGI,[4],> 100 µM
same,TGI,[5],> 100 µM
same,TGI,[6],> 100 µM
same,TGI,[7],> 100 µM
same,TGI,[8],> 100 µM
same,TGI,[9],> 100 µM
same,TGI,[10],> 100 µM
same,TGI,[56],> 100 µM
same,TGI,[11],> 100 µM
same,TGI,[12],> 100 µM
same,TGI,[13],88.3 µM
same,TGI,[14],70.9 µM
same,TGI,[15],> 100 µM
same,TGI,[16],> 100 µM
same,TGI,[17],> 100 µM
same,TGI,[18],> 100 µM
same,TGI,[19],> 100 µM
same,TGI,[20],> 100 µM
same,TGI,[21],> 100 µM
same,TGI,[23],> 100 µM
same,TGI,[24],> 100 µM
same,TGI,[25],> 100 µM
same,TGI,[26],> 100 µM
same,TGI,[27],> 100 µM
same,TGI,[28],> 100 µM
same,TGI,[29],> 100 µM
same,TGI,[30],> 100 µM
same,TGI,[31],43.1 µM
same,TGI,[32],> 100 µM
same,TGI,[33],> 100 µM
same,TGI,[57],> 100 µM
same,TGI,[34],> 100 µM
same,TGI,[35],> 100 µM
same,TGI,[36],> 100 µM
same,TGI,[37],81.4 µM
same,TGI,[38],41.5 µM
same,TGI,[40],> 100 µM
same,TGI,[41],> 100 µM
same,TGI,[42],71.7 µM
same,TGI,[43],> 100 µM
same,TGI,[44],40.7 µM
same,TGI,[46],> 100 µM
same,TGI,[48],> 100 µM
same,TGI,[58],93.2 µM
same,TGI,[49],> 100 µM
same,TGI,[50],> 100 µM
same,TGI,[51],> 100 µM
same,TGI,[52],59.2 µM
same,TGI,[53],> 100 µM
same,TGI,[54],> 100 µM
same,TGI,[55],> 100 µM
CN(C)c1nc2n(CCO)ccnc-2c(=O)n1,TGI,[1],> 100 µM
same,TGI,[2],> 100 µM
same,TGI,[3],> 100 µM
same,TGI,[4],> 100 µM
same,TGI,[5],> 100 µM
same,TGI,[6],> 100 µM
same,TGI,[7],> 100 µM
same,TGI,[8],> 100 µM
same,TGI,[9],> 100 µM
same,TGI,[10],> 100 µM
same,TGI,[56],> 100 µM
same,TGI,[11],> 100 µM
same,TGI,[12],> 100 µM
same,TGI,[14],> 100 µM
same,TGI,[15],> 100 µM
same,TGI,[16],> 100 µM
same,TGI,[17],> 100 µM
same,TGI,[18],> 100 µM
same,TGI,[19],> 100 µM
same,TGI,[20],> 100 µM
same,TGI,[21],> 100 µM
same,TGI,[22],> 100 µM
same,TGI,[23],> 100 µM
same,TGI,[24],> 100 µM
same,TGI,[25],> 100 µM
same,TGI,[26],> 100 µM
same,TGI,[27],> 100 µM
same,TGI,[28],> 100 µM
same,TGI,[29],> 100 µM
same,TGI,[30],> 100 µM
same,TGI,[31],> 100 µM
same,TGI,[32],> 100 µM
same,TGI,[33],> 100 µM
same,TGI,[57],> 100 µM
same,TGI,[34],> 100 µM
same,TGI,[35],> 100 µM
same,TGI,[36],> 100 µM
same,TGI,[37],> 100 µM
same,TGI,[38],> 100 µM
same,TGI,[39],> 100 µM
same,TGI,[40],> 100 µM
same,TGI,[41],> 100 µM
same,TGI,[42],> 100 µM
same,TGI,[43],> 100 µM
same,TGI,[44],> 100 µM
same,TGI,[45],> 100 µM
same,TGI,[46],> 100 µM
same,TGI,[47],> 100 µM
same,TGI,[48],> 100 µM
same,TGI,[58],> 100 µM
same,TGI,[49],> 100 µM
same,TGI,[50],> 100 µM
same,TGI,[51],> 100 µM
same,TGI,[52],> 100 µM
same,TGI,[53],> 100 µM
same,TGI,[54],> 100 µM
same,TGI,[55],> 100 µM
O=S(=O)(Nc1nc2ccccc2n1S(=O)(=O)c1ccccc1)c1ccccc1,TGI,[1],> 100 µM
same,TGI,[2],> 100 µM
same,TGI,[3],> 100 µM
same,TGI,[4],61.9 µM
same,TGI,[5],> 100 µM
same,TGI,[6],> 100 µM
same,TGI,[7],73.8 µM
same,TGI,[8],> 100 µM
same,TGI,[9],> 100 µM
same,TGI,[10],> 100 µM
same,TGI,[11],> 100 µM
same,TGI,[12],> 100 µM
same,TGI,[14],> 100 µM
same,TGI,[15],> 100 µM
same,TGI,[16],> 100 µM
same,TGI,[17],> 100 µM
same,TGI,[18],> 100 µM
same,TGI,[19],> 100 µM
same,TGI,[20],> 100 µM
same,TGI,[21],> 100 µM
same,TGI,[22],> 100 µM
same,TGI,[23],> 100 µM
same,TGI,[24],> 100 µM
same,TGI,[25],> 100 µM
same,TGI,[26],> 100 µM
same,TGI,[27],> 100 µM
same,TGI,[28],> 100 µM
same,TGI,[29],> 100 µM
same,TGI,[31],> 100 µM
same,TGI,[32],> 100 µM
same,TGI,[33],> 100 µM
same,TGI,[57],> 100 µM
same,TGI,[34],> 100 µM
same,TGI,[35],> 100 µM
same,TGI,[36],> 100 µM
same,TGI,[37],> 100 µM
same,TGI,[38],> 100 µM
same,TGI,[39],> 100 µM
same,TGI,[40],> 100 µM
same,TGI,[42],> 100 µM
same,TGI,[43],> 100 µM
same,TGI,[44],> 100 µM
same,TGI,[45],> 100 µM
same,TGI,[46],> 100 µM
same,TGI,[47],> 100 µM
same,TGI,[48],> 100 µM
same,TGI,[49],> 100 µM
same,TGI,[50],> 100 µM
same,TGI,[51],> 100 µM
same,TGI,[52],> 100 µM
same,TGI,[53],> 100 µM
same,TGI,[54],> 100 µM
same,TGI,[55],> 100 µM
